{"source": "patent US7678390B2", "about": "“Carbon monoxide as a biomarker and therapeutic agent” (priority 1999, dated 2010)", "key": {"[1]": {"test_system": "mice given LPS (wild type)", "test": "LPS-induced serum cytokines in mice exposed to CO", "assay_type": "in vivo, mouse", "excerpt": "Animals. Male C57BL/6 and IL-10 (−/−) mice were purchased from Jackson Laboratory (Bar Harbor, Me.), and allowed to acclimate for one week with rodent chow and water ad libitum. The MKK (−/−) mice were generated as previously described [Lu, et al., EMBO J. 18:1845-1857 (1999)]. Wild type littermates were used as controls. All animals were housed in accordance with guidelines from the American Association for Laboratory Animal Care and Research Protocols and were approved by the Animal Care and Use Committee of Yale University School of Medicine. Reagents. All reagents were purchased from Sigma Chemical Co. (St Louis, Mo.) unless specified otherwise. Plasmid Construct. Plasmid pSFFV/HO-1 was constructed by insertion of the rat HO-1 cDNA [Shibahara, et al., Proc. Natl. Acad. Sci. USA. 82: 7865-7869 (1985)] downstream of the Friend spleen focus-forming virus 5′ long-terminal repeat in the mammalian expression vector pSFFV/neo [Fuhlbrigge, et al, Proc. Natl. Acad. Sci. USA. 85: 5649-5653 (1988)] (kindly provided by Stanley Korsmeyer). Transfection. Stable transfections were carried out by the calcium phosphate precipitation technique as previously described [Alam, J., J. Biol. Chem. 269: 25049-25056 (1994)]. Briefly, RAW cells were plated (1×10^6/10 cm plate) and 16 h later, transfected with […] of pSFFV/neo or pSFFV/HO-1. Cells were exposed to the DNA-CaPO4 precipitate for 6 h, shocked by a 1 min treatment with glycerol in phosphate-buffered saline and cultured for an additional 24 h in complete medium before addition of G418. Transfectants were selected over a 3-week period in the presence of G418 (up to […]) and individual clones were isolated by limited dilution. Cell Culture Experimentation. RAW 264.7 mouse peritoneal macrophages were purchased from […] (Rockville, Md.) and primary culture of rat pulmonary vascular smooth muscle cells were harvested from male Sprague Dawley rats (250-300 g) as previously described [Gunther, et al., J. Cell. Biol. 92: 289-298 (1982).]. Both cell types were grown in DMEM containing 10% FBS and gentamicin ([…]) in a humidified atmosphere of 5% CO2/balanced air or 250 ppm CO/5% CO2/balanced air. After a 2 h pretreatment with either CO or air, LPS ([…]) or sterile saline was added to the culture media and the culture plates were returned to the chamber(s). At various time points, cell plates were removed from the chamber to collect media and/or cells for Western analysis. CO Exposures. Mice or macrophages were exposed to compressed air or 250 ppm CO. For cell culture experiments, 5% CO2 was also present for buffering requirements. CO at a concentration of 1% (10,000 ppm) in compressed air was mixed with compressed air with or without CO2 in a stainless steel mixing cylinder before delivery into the exposure chamber. Flow into the 3.70-ft^2 plexiglass animal chamber was maintained at 12 L/min and into the 1.2 ft^2 cell culture chamber at a flow of 2 L/min. The cell culture chamber was humidified and maintained at 37° C. A CO analyzer (Interscan, Chatsworth, Calif.) was used to measure CO levels continuously in the chambers. Gas samples were taken by the analyzer through a port in the top of the chambers at a rate of 1 L/min and analyzed by electrochemical detection, with a sensitivity of 10-600 ppm. Concentration levels were measured hourly and there were no fluctuations in the CO concentrations once the chamber had equilibrated (approximately 5 min). Animal Experimentation. Mice were prebled from the retroorbital sinus (0.25 ml) and then exposed to CO (250 ppm) or room air for 1 h prior to administration of LPS (1 mg/kg, i.p.), E. coli serotype O127:B8. 1 and 16 h thereafter, they were removed from the exposure apparatus individually and a blood sample was obtained via the retroorbital sinus. After the blood collection, the mice were immediately returned to the exposure chamber. […]"}, "p38 MAP kinase": {"test_system": "p38 MAP kinase", "test": "LPS-induced MAP kinase activation, Western blot (p38)", "assay_type": "cell-based, mouse", "conditions": "RAW 264.7 macrophages, LPS in the presence of CO", "excerpt": "Animals. Male C57BL/6 and IL-10 (−/−) mice were purchased from Jackson Laboratory (Bar Harbor, Me.), and allowed to acclimate for one week with rodent chow and water ad libitum. The MKK (−/−) mice were generated as previously described [Lu, et al., EMBO J. 18:1845-1857 (1999)]. Wild type littermates were used as controls. All animals were housed in accordance with guidelines from the American Association for Laboratory Animal Care and Research Protocols and were approved by the Animal Care and Use Committee of Yale University School of Medicine. Reagents. All reagents were purchased from Sigma Chemical Co. (St Louis, Mo.) unless specified otherwise. Plasmid Construct. Plasmid pSFFV/HO-1 was constructed by insertion of the rat HO-1 cDNA [Shibahara, et al., Proc. Natl. Acad. Sci. USA. 82: 7865-7869 (1985)] downstream of the Friend spleen focus-forming virus 5′ long-terminal repeat in the mammalian expression vector pSFFV/neo [Fuhlbrigge, et al, Proc. Natl. Acad. Sci. USA. 85: 5649-5653 (1988)] (kindly provided by Stanley Korsmeyer). Transfection. […] Gas samples were taken by the analyzer through a port in the top of the chambers at a rate of 1 L/min and analyzed by electrochemical detection, with a sensitivity of 10-600 ppm. Concentration levels were measured hourly and there were no fluctuations in the CO concentrations once the chamber had equilibrated (approximately 5 min). […]"}}}
{"smiles": "[C-]#[O+]", "note": "[CO, carbon monoxide]", "values": [{"measurement": "TNF-α or IL-10 production without LPS", "setting": "[1]; CO (250 ppm) alone, MKK3(−/−) or wild type(+/+) mice", "result": "no effect"}, {"measurement": "IL-10 in response to LPS in vivo", "setting": "[1]; LPS 1 mg/kg, mice, CO 250 ppm", "result": "augmentation"}, {"measurement": "EC50 for attenuation of LPS-induced TNF-α production in vivo", "setting": "[1]; LPS 1 mg/kg, mice, dose-dependent", "result": 69.9, "unit": "ppm"}, {"measurement": "LPS-induced TNF-α production in vivo", "setting": "[1]; LPS 1 mg/kg, mice, in the presence of CO", "result": "significant attenuation"}, {"measurement": "inhibition at 250 ppm", "setting": "[1]; Mus musculus, wild type controls, LPS, CO 250 ppm, 1 h, read-out: inhibition of serum TNF-α levels", "result": 73, "unit": "%"}, {"measurement": "LPS-induced serum TNF-α production", "setting": "[1]; wild type(+/+) littermates, LPS 1 mg/kg, 250 ppm CO", "result": "attenuated levels"}, {"measurement": "LPS-induced IL-10 levels", "setting": "[1]; wild type(+/+) mice, LPS 1 mg/kg, 250 ppm CO", "result": "augmented"}, {"measurement": "LPS-induced p38 MAP kinase activation", "setting": "p38 MAP kinase", "result": "significantly augmented"}]}
